Source: PubChem BioAssay (NCI)
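Tested at 5 concentrations; 48 h exposure; 96-well plates; endpoints linearly interpolated, else capped at highest concentration. GI50 = concentration required for 50% inhibition of growth. Definition used: TGI = concentration required for complete inhibition of growth.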

Key:
Experiment in all cases: NCI tumour cell line growth inhibition, 48 h
786-0 renal = system: 786-0 renal
A498 renal = system: A498 renal
A549 NSCLC = system: A549 NSCLC
ACHN renal = system: ACHN renal
BT-549 breast = system: BT-549 breast
CAKI-1 renal = system: CAKI-1 renal
CCRF-CEM leukemia = system: CCRF-CEM leukemia
COLO 205 colon = system: COLO 205 colon
DU-145 prostate = system: DU-145 prostate
EKVX NSCLC = system: EKVX NSCLC
HCC-2998 colon = system: HCC-2998 colon
HCT-116 colon = system: HCT-116 colon
HCT-15 colon = system: HCT-15 colon
HL-60(TB) leukemia = system: HL-60(TB) leukemia
HOP-62 NSCLC = system: HOP-62 NSCLC
HOP-92 NSCLC = system: HOP-92 NSCLC
HS 578T breast = system: HS 578T breast
HT29 colon = system: HT29 colon
IGROV1 ovarian = system: IGROV1 ovarian
K-562 leukemia = system: K-562 leukemia
KM12 colon = system: KM12 colon
LOX IMVI melanoma = system: LOX IMVI melanoma
M14 melanoma = system: M14 melanoma
MALME-3M melanoma = system: MALME-3M melanoma
MCF7 breast = system: MCF7 breast
MDA-MB-231 breast = system: MDA-MB-231 breast
MDA-MB-435 = system: MDA-MB-435
MDA-MB-468 breast = system: MDA-MB-468 breast
MOLT-4 leukemia = system: MOLT-4 leukemia
NCI-H226 lung = system: NCI-H226 lung
NCI-H23 lung = system: NCI-H23 lung
NCI-H460 lung = system: NCI-H460 lung
NCI-H522 lung = system: NCI-H522 lung
NCI/ADR-RES ovarian = system: NCI/ADR-RES ovarian
OVCAR-3 ovarian = system: OVCAR-3 ovarian
OVCAR-4 ovarian = system: OVCAR-4 ovarian
OVCAR-5 ovarian = system: OVCAR-5 ovarian
OVCAR-8 ovarian = system: OVCAR-8 ovarian
PC-3 prostate = system: PC-3 prostate
RPMI-8226 leukemia = system: RPMI-8226 leukemia
RXF 393 renal = system: RXF 393 renal
SF-268 CNS = system: SF-268 CNS
SF-295 CNS = system: SF-295 CNS
SF-539 CNS = system: SF-539 CNS
SK-MEL-2 melanoma = system: SK-MEL-2 melanoma
SK-MEL-28 melanoma = system: SK-MEL-28 melanoma
SK-MEL-5 melanoma = system: SK-MEL-5 melanoma
SK-OV-3 ovarian = system: SK-OV-3 ovarian
SN12C renal = system: SN12C renal
SNB-19 CNS = system: SNB-19 CNS
SNB-75 CNS = system: SNB-75 CNS
SR leukemia = system: SR leukemia
SW-620 colon = system: SW-620 colon
T-47D breast = system: T-47D breast
TK-10 renal = system: TK-10 renal
U251 CNS = system: U251 CNS
UACC-257 melanoma = system: UACC-257 melanoma
UACC-62 melanoma = system: UACC-62 melanoma
UO-31 renal = system: UO-31 renal

## Oc1ccc(Cl)c(Nc2ncnc3c2cnn3CC(Cl)c2ccc(Br)cc2)c1 (stereo not drawn)
786-0 renal
  GI50: 5.7 µM
  TGI: 23.3 µM
A498 renal
  GI50: 16.2 µM
  TGI: 30.7 µM
A549 NSCLC
  GI50: 12.1 µM
  TGI: 37.3 µM
ACHN renal
  GI50: 2.12 µM
  TGI: 15.3 µM
BT-549 breast
  GI50: 12.7 µM
  TGI: 25.4 µM
CAKI-1 renal
  GI50: 3.72 µM
  TGI: 28.6 µM
CCRF-CEM leukemia
  GI50: 13.6 µM
  TGI: 60.1 µM
COLO 205 colon
  GI50: 17.7 µM
  TGI: 38.7 µM
DU-145 prostate
  GI50: 10.6 µM
  TGI: 32 µM
EKVX NSCLC
  GI50: 11.9 µM
  TGI: 34.6 µM
HCC-2998 colon
  GI50: 14.9 µM
  TGI: 29.1 µM
HCT-116 colon
  GI50: 7.89 µM
  TGI: 21.4 µM
HCT-15 colon
  GI50: 4.57 µM
  TGI: 19.4 µM
HL-60(TB) leukemia
  GI50: 23.2 µM
  TGI: 62.2 µM
HOP-62 NSCLC
  GI50: 11.7 µM
  TGI: 30.5 µM
HOP-92 NSCLC
  GI50: 2.34 µM
  TGI: 12.4 µM
HS 578T breast
  GI50: 1.13 µM
  TGI: 7.95 µM
HT29 colon
  GI50: 13.9 µM
  TGI: 31.9 µM
IGROV1 ovarian
  GI50: 2.39 µM
  TGI: 8.31 µM
K-562 leukemia
  GI50: 0.0826 µM
  TGI: 12.9 µM
KM12 colon
  GI50: 19.3 µM
  TGI: 42.9 µM
LOX IMVI melanoma
  GI50: 2.09 µM
  TGI: 11.8 µM
M14 melanoma
  GI50: 11.2 µM
  TGI: 24.3 µM
MALME-3M melanoma
  GI50: 12.3 µM
  TGI: 25.1 µM
MCF7 breast
  GI50: 11.1 µM
  TGI: 26.2 µM
MDA-MB-231 breast
  GI50: 7.29 µM
  TGI: 21 µM
MDA-MB-435
  GI50: 11.9 µM
  TGI: 26.8 µM
MDA-MB-468 breast
  GI50: 3.35 µM
  TGI: 16.3 µM
MOLT-4 leukemia
  GI50: 6.75 µM
  TGI: 37.7 µM
NCI-H226 lung
  GI50: 11.8 µM
  TGI: 28.7 µM
NCI-H23 lung
  GI50: 12.6 µM
  TGI: 26.3 µM
NCI-H460 lung
  GI50: 16.7 µM
  TGI: 36.5 µM
NCI-H522 lung
  GI50: 7.4 µM
  TGI: 27.8 µM
NCI/ADR-RES ovarian
  GI50: 7.47 µM
  TGI: 27.4 µM
OVCAR-3 ovarian
  GI50: 7.99 µM
  TGI: 38.8 µM
OVCAR-4 ovarian
  GI50: 13.1 µM
  TGI: 54.4 µM
OVCAR-5 ovarian
  GI50: 10.3 µM
  TGI: 24.4 µM
OVCAR-8 ovarian
  GI50: 7.97 µM
  TGI: 25.9 µM
PC-3 prostate
  GI50: 4.53 µM
  TGI: 35.4 µM
RPMI-8226 leukemia
  GI50: 17 µM
  TGI: 93.8 µM
RXF 393 renal
  GI50: 0.766 µM
  TGI: 7.17 µM
SF-268 CNS
  GI50: 6.07 µM
  TGI: 33.5 µM
SF-295 CNS
  GI50: 6.2 µM
  TGI: 27.3 µM
SF-539 CNS
  GI50: 4.64 µM
  TGI: 18.1 µM
SK-MEL-2 melanoma
  GI50: 17.5 µM
  TGI: 34.3 µM
SK-MEL-28 melanoma
  GI50: 14.9 µM
  TGI: 28.9 µM
SK-MEL-5 melanoma
  GI50: 10.5 µM
  TGI: 22.3 µM
SK-OV-3 ovarian
  GI50: 7.63 µM
  TGI: 31.3 µM
SN12C renal
  GI50: 3.79 µM
  TGI: 18.1 µM
SNB-19 CNS
  GI50: 12.4 µM
  TGI: 36 µM
SNB-75 CNS
  GI50: 1.03 µM
  TGI: 5.58 µM
SR leukemia
  GI50: 6.67 µM
  TGI: 81.6 µM
SW-620 colon
  GI50: 21.9 µM
  TGI: 47.4 µM
T-47D breast
  GI50: 4.48 µM
  TGI: 55.4 µM
TK-10 renal
  GI50: 13.9 µM
  TGI: 29 µM
U251 CNS
  GI50: 11.3 µM
  TGI: 25.5 µM
UACC-257 melanoma
  GI50: 13.8 µM
  TGI: 28.3 µM
UACC-62 melanoma
  GI50: 12.6 µM
  TGI: 25.2 µM
UO-31 renal
  GI50: 2.34 µM
  TGI: 17 µM
